Like-named read-outs stand apart in the source and are kept apart here.
How the values were obtained:
[1] = system: Cryptosporidium parvum; assay: qRT-PCR assay of the growth of C. parvum in vitro in HCT-8 host cells (primary and secondary screening, EC50); type: cell-based; details: for % Inhibition (3.3 uM): secondary screening at 3.3 uM
[2] = system: HCT-8 host cells (Hs18S)
[3] = primary screening at 10 uM, from Hs18S ΔCT
[4] = primary screening at 10 uM, treated vs control

SMILES: CS(C)(=O)=O [DIMETHYLSULFONE]
- Inhibition (%) ([1]; primary screening at 10 uM): 65.78%
- % Inhibition (3.3 uM) [1]: 61%
- Cytotoxicity (%) [2, 3]: 46.5%
- Hs18S ΔCT [2, 4]: 0.90

SMILES: N[C@@H](CSCSC[C@H](N)C(=O)O)C(=O)O [DJENKOLIC ACID]
- Inhibition (%) ([1]; primary screening at 10 uM): 23.33%
- Cytotoxicity (%) [2, 3]: 0.2%
- Hs18S ΔCT [2, 4]: 0.00

SMILES: C[C@]12CC[C@H](O)C[C@@H]1CC[C@@H]1[C@@H]2CC[C@]2(C)C(=O)CC[C@@H]12 [EPIANDROSTERONE]
- inhibition at 10 µM ([1]; Cryptosporidium parvum, HCT-8): -36%
- Hs18S ΔCT [2]: -0.05

SMILES: O=C(O[C@@H]1Cc2c(O)cc(O)cc2O[C@@H]1c1ccc(O)c(O)c1)c1cc(O)c(O)c(O)c1 [EPICATECHIN MONOGALLATE]
- Inhibition (%) ([1]; primary screening at 10 uM): 6.24%
- Cytotoxicity (%) [2, 3]: 23.1%
- Hs18S ΔCT [2, 4]: 0.38

SMILES: O=C(O[C@@H]1Cc2c(O)cc(O)cc2O[C@@H]1c1cc(O)c(O)c(O)c1)c1cc(O)c(O)c(O)c1 [EPIGALLOCATECHIN-3-MONOGALLATE]
- Inhibition (%) ([1]; primary screening at 10 uM): 10.02%
- Cytotoxicity (%) [2, 3]: -14.2%
- Hs18S ΔCT [2, 4]: -0.19

SMILES: O=C(O)c1cc(O)c(=O)c2c(O)c(O)cc([C@H]3Oc4cc(O)cc(O)c4C[C@H]3O)c2c1 [EPITHEAFLAVIC ACID]
- Inhibition (%) ([1]; primary screening at 10 uM): -9.36%
- Cytotoxicity (%) ([2]; 10 µM): 6.9%

SMILES: CC(=O)O[C@@H]1CC2C(C)(C)C(=O)C3OC3[C@]2(C)C2CC[C@@]3(C)[C@H](c4ccoc4)OC(=O)C4OC43[C@@]21C (stereo partly shown) [EPOXYGEDUNIN]
- Inhibition (%) ([1]; primary screening at 10 uM): 29.04%
- Cytotoxicity (%) [2, 3]: -37.3%
- Hs18S ΔCT [2, 4]: -0.46

SMILES: CC(=O)O[C@H]1CC[C@@]2(C)C(=CC=C3[C@@H]4CC[C@H]([C@H](C)/C=C/[C@H](C)C(C)C)[C@@]4(C)CC[C@@H]32)C1 [ERGOSTEROL ACETATE]
- Inhibition (%) ([1]; primary screening at 10 uM): -10.68%
- Cytotoxicity (%) [2, 3]: 3.7%
- Hs18S ΔCT [2, 4]: 0.06

SMILES: O=C[C@H](O)[C@H](O)CO [ERYTHROSE]
- Inhibition (%) ([1]; primary screening at 10 uM): 57.20%
- Cytotoxicity (%) [2, 3]: 14.6%
- Hs18S ΔCT [2, 4]: 0.23

SMILES: O.O=c1ccc2cc(O[C@@H]3OC(CO)[C@@H](O)[C@@H](O)C3O)c(O)cc2o1 (stereo partly shown) [ESCULIN MONOHYDRATE]
- Inhibition (%) ([1]; primary screening at 10 uM): 10.62%
- Cytotoxicity (%) [2, 3]: -34.0%
- Hs18S ΔCT [2, 4]: -0.42

SMILES: COc1c(-c2ccccc2)oc2cc(O)cc(O)c2c1=O [GALANGIN 3-O-METHYL ETHER]
- Inhibition (%) ([1]; primary screening at 10 uM): -5.04%
- Cytotoxicity (%) ([2]; 10 µM): -45.3%

SMILES: COc1cc(OC)c2c(=O)c(OC)c(-c3ccccc3)oc2c1 [GALANGIN TRIMETHYL ETHER]
- Inhibition (%) ([1]; primary screening at 10 uM): -18.22%
- Cytotoxicity (%) [2, 3]: 8.8%
- Hs18S ΔCT [2, 4]: 0.13

SMILES: NC(=O)CC[C@H](N)C(=O)O [GLUTAMINE (D)]
- Inhibition (%) ([1]; primary screening at 10 uM): 2.46%
- Cytotoxicity (%) [2, 3]: -11.8%
- Hs18S ΔCT [2, 4]: -0.16

SMILES: CC1(C)[C@@H](O[C@H]2O[C@H](C(=O)O)[C@@H](O)[C@H](O)[C@H]2O[C@@H]2O[C@H](C(=O)O)[C@@H](O)[C@H](O)[C@H]2O)CC[C@]2(C)[C@H]3C(=O)C=C4[C@@H]5C[C@@](C)(C(=O)O)CC[C@]5(C)CC[C@@]4(C)[C@]3(C)CC[C@@H]12.N [GLYCYRRHIZIC ACID, AMMONIUM SALT]
- Inhibition (%) ([1]; primary screening at 10 uM): 1.41%
- Cytotoxicity (%) [2, 3]: -43.6%
- Hs18S ΔCT [2, 4]: -0.52

SMILES: O=c1c(O)c(-c2ccc(O)c(O)c2)oc2c(O[C@@H]3O[C@H](CO)[C@@H](O)[C@H](O)[C@H]3O)c(O)cc(O)c12 [GOSSYPIN]
- Inhibition (%) ([1]; primary screening at 10 uM): -22.05%
- Cytotoxicity (%) [2, 3]: -4.8%
- Hs18S ΔCT [2, 4]: -0.07

SMILES: CC(=O)O.Cc1cc2c(C(C)C)c(O)c(O)c(C=O)c2c(O)c1-c1c(C)cc2c(C(C)C)c(O)c(O)c(C=O)c2c1O [GOSSYPOL-ACETIC ACID COMPLEX]
- Inhibition (%) ([1]; primary screening at 10 uM): -21.55%
- Cytotoxicity (%) [2, 3]: -7.1%
- Hs18S ΔCT [2, 4]: -0.10

SMILES: C[C@H]1CC[C@@H](C(C)(C)O)CC2=C1CC[C@@H]2C [GUAIOL(-)]
- Inhibition (%) ([1]; 10 µM): -22.71
- Hs18S ΔCT [2]: 0.20
- Cytotoxicity (%) ([2]; 10 µM): 12.7

SMILES: CC(=O)Oc1cc2c(cc1OC(C)=O)[C@@H]1c3ccc(OC(C)=O)c(OC(C)=O)c3OC[C@]1(OC(C)=O)C2 [HAEMATOXYLIN PENTAACETATE]
- Inhibition (%) ([1]; primary screening at 10 uM): -26.73%
- Cytotoxicity (%) [2, 3]: 12.3%
- Hs18S ΔCT [2, 4]: 0.19

SMILES: COc1ccc([C@@H]2CC(=O)c3c(O)cc(O[C@@H]4O[C@H](CO[C@@H]5O[C@@H](C)[C@H](O)[C@@H](O)[C@H]5O)[C@@H](O)[C@H](O)[C@H]4O)cc3O2)cc1O [HESPERIDIN]
- Inhibition (%) ([1]; primary screening at 10 uM): 66.25%
- % Inhibition (3.3 uM) [1]: 36%
- Cytotoxicity (%) [2, 3]: 21.5%
- Hs18S ΔCT [2, 4]: 0.35

SMILES: COc1ccc(-c2oc3cc(OC)c(OC)c(OC)c3c(=O)c2OC)cc1OC [HEXAMETHYLQUERCETAGETIN]
- Inhibition (%) ([1]; primary screening at 10 uM): 95.76%
- % Inhibition (3.3 uM) [1]: -42%
- Cytotoxicity (%) [2, 3]: 50.3%
- Hs18S ΔCT [2, 4]: 1.01

SMILES: O=c1cc(-c2cc(O)c(O)c(O)c2)oc2cc(O)cc(O)c12 [HIERACIN]
- Inhibition (%) ([1]; primary screening at 10 uM): -2.75%
- Cytotoxicity (%) ([2]; 10 µM): 31.0%

SMILES: COc1ccc2c(c1OC)C(=O)O[C@@H]2[C@H]1c2cc3c(cc2CCN1C)OCO3 [HYDRASTINE (1R, 9S)]
- Inhibition (%) ([1]; primary screening at 10 uM): -23.62%
- Hs18S ΔCT [2, 4]: -0.18
